For seven molecules, EC50 results are on record in ChEMBL document CHEMBL1123870, “Limited nerve impulse blockade by "leashed" local anesthetics” (1987).

Each structure is given as a SMILES string. pEC50: −log10 of the molar value.

This test in a line: Tonic inhibition of compound action potential by 50% was determined in the absence of avidin in desheathed frog sciatic nerves. In kind it is functional. The conditions noted are these: Amphibia, Sciatic nerve; read-out: ED50 (the source's name).
Turning to `CCCCN(C(=O)CCCC[C@H]1SCC2NC(=O)NC21)c1ccc(C(=O)OCCN(C)C)cc1` (some centres not stated), the pEC50 was 2.82.
On to `CCN(CC)CCOC(=O)c1ccc(NC(=O)OCCOCCOCCO)cc1`, for which the pEC50 is 2.49.
To `CCN(CC)CCOC(=O)c1ccc(NC(=O)OCCOCCOCCOC(=O)CCCC[C@H]2SCC3NC(=O)NC32)cc1` (some centres not stated) belongs 2.62.
For `CCN(CC)CCOC(=O)c1ccc(N)cc1` [PROCAINE], the pEC50 is 2.89.
Consider `CCCCNc1ccc(C(=O)OCCN(C)C)cc1` [TETRACAINE], for which the pEC50 was 4.92.
Take `CCN(CC)CCOC(=O)c1ccc(NC(=O)CCCC[C@H]2SCC3NC(=O)NC32)cc1` (some centres not stated): the pEC50 is 2.38.
For the molecule `CCN(CC)CCOC(=O)c1ccc(NC(=O)OCCOCCOCCOCCOCCOCCO)cc1`, the pEC50 was 2.18.
